Entries after “also recorded” stand apart in the source; their conditions may differ.

Data set [1] deals with tissue norepinephrine and dopamine levels. The data set can be described thus: Tissue catecholamines in SHRs after single dose (dose response, time course). The class given is in vivo, spontaneously hypertensive rats. Particulars: for dose with significant change in dopamine/norepinephrine ratio: 6 h after single oral dose. On the procedure:
Significant changes in these parameters were also observed in the left ventricle of male Sprague-Dawley rats 6 hours after the second of two i.v. injections (15 mg/kg) given 12 hours apart. The 24 hour time course of tissue catecholamines was studied in male SHRs following oral administration of either 10 or 30 mg/kg, respectively. The increase in the dopamine/norepinephrine ratio was significant at 1 hour, and was long lasting (12 hours at 10 mg/kg, mesenteric artery, and 24 hours at 30 mg/kg, left ventricle).
In SHRs there were significant changes in the dopamine/norepinephrine ratio in the mesenteric artery at doses of 0.3 mg/kg, in the left ventricle at 3.0 mg/kg, and in the cerebral cortex at 10 mg/kg. […] In a second dose-response study in SHRs, three doses were administered 12 hours apart at either 3.0, 10, 30, or 100 mg/kg, and tissue was harvested six hours after the third dose. Nepicastat caused a significant dose dependent decrease in norepinephrine (10 mg/kg) and increase in dopamine (3.0 mg/kg) and the dopamine/norepinephrine ratio (3.0 mg/kg) in the left ventricle and mesenteric artery. The effects of nepicastat on dopamine and norepinephrine concentrations, and the dopamine/norepinephrine ratio in the cerebral cortex were significant only at 30 and 100 mg/kg.
The purpose of this study was to determine the 24 hours time course of the effects of nepicastat (10 mg/kg) on dopamine and norepinephrine levels in the mesenteric artery following a single oral dose in spontaneously hypertensive rats. Catecholamine levels were measured at 1, 2, 4, 6, 8, 12, 16, and 24 hours after a single oral administration of either nepicastat (10 mg/kg) or vehicle (dH2O; 10 ml/kg).
Sixteen-17 week old, male spontaneous hypertensive rats (SHRs) weighing 300-400 grams were allowed food and water ad libitum. Animals were weighed and randomly assigned, the afternoon before the study, to one of the following treatment groups (n=9 per group): a single oral administration of nepicastat at 10 mg/kg or a single oral administration of vehicle (10 ml/kg) to be sacrificed at 1, 2, 4, 6, 8, 12, 16, or 24 hours.
Animals were dosed […] the morning of sacrifice. At 1, 2, 4, 6, 8, 12, 16 and 24 hours following administration, 9 treated animals and 9 vehicle animals were anesthetized with halothane, decapitated, and the left ventricle and mesenteric artery were rapidly harvested and weighed. The mesenteric artery was put in 0.5 ml of 0.4M perchloric acid in a centrifuge tube and the left ventricle put into an empty cryotube. Both tissues were immediately frozen in liquid nitrogen and stored at −70° C. Mesenteric artery catecholamine levels were determined using HPLC with electrochemical detection. At the time of decapitation, plasma samples were taken by draining blood from the carcass into a tube containing heparin, and centrifuging at 4° C.
Each treatment group was compared to vehicle at each time point. A two way analysis of variance (ANOVA) with effects TRT, HARVEST and their interaction was performed. A one way ANOVA with factor TRT was performed for each harvest time. Pairwise analyses between treated and vehicle animals, at each time point, were carried out using Fisher's LSD strategy to control the experiment-wise error rate. […] Levels were marginally (0.05<p<0.1) lower at the 6 hour time point.

The nature of data set [2]: Pharmacokinetics and brain levels in rats. It counts as in vivo. On the procedure: Male rats (Crl: CD BR Vaf+) weighing 180-220 g were fasted overnight before dosing and until 4 hr after dosing. Doses were formulated in water containing 2% 1-hydroxypropyl methylcellulose (50 centipoises viscosity), 1% benzyl alcohol, and 0.6% Tween 80 (all obtained from Sigma Chemical Company). Concentration of drug in the dose solutions was 5, 15, and 50 mg/ml for the 10, 30, and 100 mg/kg doses, respectively, and was verified by liquid chromatography (LC). The 5 mg/ml dose was a clear solution and the higher concentrations were a translucent suspension. Dose volumes were 2.0 ml/kg. At various times after dosing, samples of blood were obtained by cardiac puncture with heparinized syringes, and plasma was prepared by centrifugation. Brains of rats were surgically excised, and all samples were frozen at −20° C. until analysis.
Aliquots of plasma (0.05 or 0.5 ml) were mixed with internal standard (50 μl of methanol containing 5 μg/ml a monofluoro analog of nepicastat, and 5 mg/ml dithiothreitol). […] Concentrations of analytes were determined from a standard curve generated from the analysis of plasma from untreated rats fortified with known concentrations of analyte. Plasma concentration data are expressed as μg (free base) per ml. […]
Following addition of 100 μl of methanol to the aqueous phase (to disperse any emulsion), 100 μl aliquots were assayed by LC as described for plasma. Level in brain are expressed as μg (free base) per g of brain tissue.
Pharmacokinetic parameters were calculated from mean plasma concentrations. Plasma half-life (T1/2) was calculated as 0.693/β, where β is the elimination rate constant determined by linear regression of the log plasma concentration vs. time data within the terminal linear portion of the data. Areas under the plasma concentration vs. time curve (AUC) from zero to the time of the last quantifiable plasma concentrations were calculated by the trapezoidal rule. AUC from zero to infinity (AUCtotal 1 was calculated as: AUCtotal=AUC(0−Clast)+Clast/β where Clast is the last quantifiable plasma concentration.

A further data set concerns SHRs. The settings on record: rat, in vivo.

With `Cl.NCc1c[nH]c(=S)n1[C@H]1CCc2c(F)cc(F)cc2C1` [nepicastat, (S)-5-Aminomethyl-1-(5,7-difluoro-1,2,3,4-tetrahydronaphth-2-yl)-2,3-dihydro-2-thioxo-1H-imidazole hydrochloride], the “duration of increase in dopamine/norepinephrine ratio” value in data set [1] (10 mg/kg, mesenteric artery) was found to be 12 h; in data set [1] (30 mg/kg, left ventricle), 24 h. The “time at which increase in dopamine/norepinephrine ratio was significant” value in data set [1] (10 or 30 mg/kg oral) was found to be 1 h. In addition, the “doses inhibiting DBH” value is 60 to 100 mg/kg/day in data set [1] (cerebral cortex of rats); 1 to 6 mg/kg/day in data set [1] (left ventricle and mesenteric artery of rats). The “dose with significant change in dopamine/norepinephrine ratio” value in data set [1] (cerebral cortex) is 10 mg/kg; in data set [1] (left ventricle) it was 3.0 mg/kg; in data set [1] (mesenteric artery) it was 0.3 mg/kg. For the same compound, the “oral dose with significant evidence for DBH inhibition” value in data set [1] (heart and mesenteric artery, rats) amounted to 6 mg/kg/day. Besides, the “dopamine/norepinephrine ratio vs vehicle” value in data set [1] (mesenteric artery, 10 mg/kg po, 1, 2, 4, 6 and 12 hour) is given as “significantly (p<0.05) greater”. For the same compound, the “dopamine levels vs vehicle” value in data set [1] (mesenteric artery, 10 mg/kg po, 2 and 6 hr) is “significantly (p<0.05) higher”. The “norepinephrine, dopamine and ratio” value in data set [1] (mesenteric artery, 10 mg/kg po, 16 and 24 h harvest) was “no changes in any of the three parameters”. Further, the norepinephrine vs vehicle entry in data set [1] (mesenteric artery, single 10 mg/kg po, 1-24 h) was “significantly (p<0.05) lower than vehicle only at the 4 hr time point”. Moreover, the “plasma AUCtotal, higher in female than in male rats” value in data set [2] (30 mg/kg oral) came out at 77%. Also, the “brain vs plasma concentrations” value in data set [2] (male rats, 10 mg/kg oral, from 2 hr onward, hydrochloride, 10 mg/kg) is “concentrations of nepicastat in brain exceeded those in plasma; also recorded: levels of nepicastat in brain were greater than in plasma”. Further, the “relationship between AUCtotal and dose” value in data set [2] (male rats, 10-100 mg/kg) was “linear”. In the data set on SHRs, the “motor activity (MA)” value was “unaffected”.

(Values after patent US10561638B2, “Methods for treating dependence” (Biotie Therapies, Inc., priority 2007, dated 2020).)
